Source: US10807992B2, “Single enantiomer antiparasitic compounds” (priority 2017, dated 2020)
Like-named read-outs stand apart in the source and are kept apart here.

Experiment: Dog PK study of C1 (S) enantiomer, single oral dose, plasma and whole blood by chiral LC-MS/MS
Type: in vivo, beagle dogs
Details: for AUC(0-t): read-out: NCA AUC0-last; for AUC(0-inf): read-out: NCA AUC0-∞
Experimental: This study assessed the in vivo pharmacokinetic (PK) behavior of a single oral dose of the C1 (S) enantiomer in beagle dogs (Charles River study# 20104466). Solutions of C1 (S) enantiomer were dosed by oral gavage (10mg/kg) to a group of dogs (n=3). Blood samples were collected pre-dose and at 0.25, 0.5, 1, 2, 4, and 8 hours following dosing on Day 1. Blood samples were also collected on Days1, 2, 3, 5, 7, 10, 14, 17, 21, 25, 28, 32, 35, 39, 43, and 45. A portion of each whole blood sample was processed to plasma. Test article concentrations in plasma and whole blood were determined using liquid chromatography tandem mass spectrometry (LC-MS/MS).
Calibration curves were constructed by spiking racemic 1-[6-[5-(3,5-dichloro-4-fluoro-phenyl)-5-(trifluoromethyl)-4H-isothiazol-3-yl]spiro[1H-isobenzofuran-3,3′-azetidine]-1′-yl]-3,3,3-trifluoro-propan-1-one into aliquots of blank K2EDTA beagle plasma or whole blood (Bioreclamation, Westbury, N.Y.) at the following nominal concentrations: 5, 10, 20, 50, 100, 200, 500, 1000, 2000, 5000, and 10000 ng/mL. Quality control samples (QCs) were prepared in the same manner at the following concentrations: 15, 30, 150, 800, 1600, 4000, and 8000 ng/mL.
Samples (double blanks, blank+IS, blank+drug, standards, QC samples, and study samples) were extracted using a protein precipitation procedure. A 50 μL aliquot of plasma or blood was transferred into a deep well 96-well plate. To the sample aliquot, 250 μL of an internal standard (IS) solution for plasma or 300 μL for blood was added. The internal standard solution contained Afoxolaner at 50 ng/mL in methanol. For double blanks and blank+drug, neat methanol instead of IS was added. The 96-well plate was capped, shaken for ten minutes, and centrifuged at 5000 relative centrifugal force (RCF) for 10 minutes at 15° C. A 150-200 μL aliquot of the resulting supernatant of each sample was transferred to a clean, 96-well microtiter plate. The microtiter plate was capped and subjected to LC-MS/MS analysis.
The LC-MS/MS system consisted of a Leap autosampler, an Agilent 1100 series liquid chromatography pump, and a SciexAPI4000 mass spectrometer operated in triple quadrupole mode. A ChiralPak IA column (4.6×150mm, 5μm particle, Supplier Daicel PN 80324)at room temperature was used with water as mobile phase A and neat acetonitrile as mobile phase B. The LC gradient, MS parameters, and gas parameters are shown in the tables 2-4, respectively.
The mass spectrometer (MS) was operated in negative Turbo IonSpray™ mode with Multiple Reaction Monitoring (MRM).
Following LC-MS/MS analysis, peak area ratios were calculated (analyte peak area divided by internal standard peak area). Standard curves were created by generating least squares fitting plots of peak area ratio versus nominal concentration. Sample concentrations were calculated from the results of the least squares fits.
Cmax and Tmax are the observed maximum drug concentration and the time at which the maximum concentration occurs, respectively. Area under the curve (AUC) was calculated using the linear trapezoid method. To calculate half-lives (t1/2), a least squares regression was performed on a log concentration (C) versus time (t) plot (semi-log plot) to obtain the slope, k. The t1/2 is equal to 0.693/k. The t1/2 was calculated using data points in the elimination phase. For oral PK, Cl/F=Dose/AUC.
In this report, PK calculations were normalized to the measured dose solution concentrations. Note that in all figures and tables below, the nominal dose is listed.

[1] = dog, plasma, Beagle, oral 10 mg/kg, read-out: Plasma Concentration
[2] = dog, whole blood, Beagle, oral 10 mg/kg, read-out: Blood Concentration
[3] = dog, plasma, Beagle, oral gavage 10 mg/kg
[4] = dog, whole blood, Beagle, oral gavage 10 mg/kg
[5] = plasma, Beagle, oral gavage 10 mg/kg, 10 mg/kg
[6] = same dose level, beagle vs. mongrels

Q: Which “Blood Concentration” value (1080 hr, Beagle, oral 10 mg/kg) does the source give for `O=C(CC(F)(F)F)N1CC2(C1)OCc1cc(C3=NS[C@@](c4cc(Cl)c(F)c(Cl)c4)(C(F)(F)F)C3)ccc12` [C1 (S) enantiomer, (S)-1-[6-[5-(3,5-dichloro-4-fluoro-phenyl)-5-(trifluoromethyl)-4H-isothiazol-3-yl]spiro[1H-isobenzofuran-3,3′-azetidine]-1′-yl]-3,3,3-trifluoro-propan-1-one] here?
A: Its value is “BQL ^b”.

Q: And the “concentration in plasma relative to blood concentration” value (after 240 hours)?
A: The value was “about twice the blood concentration”.

Q: What about the “concentrations in blood and plasma compared” value (at 48 hours) of the same molecule?
A: The value was “similar”.

Q: What about the “average half-life compared with the racemate” value (beagle PK study vs. racemate oral efficacy studies in mongrels) of the same molecule?
A: Its value is “shorter than that of the racemate”.

Q: And the Tmax (beagle, dog, plasma, po, 10 mg/kg, plasma, Beagle, oral gavage 10 mg/kg, read-out: Tmax)?
A: The Tmax was 2 h.

Q: What about the CL/F (beagle, dog, plasma, po, 10 mg/kg, oral gavage 10 mg/kg) of the same molecule?
A: The CL/F was 0.833 mL/min/kg.

Q: What about the Tmax (beagle, dog, whole blood, po, 10 mg/kg, whole blood, Beagle, oral gavage 10 mg/kg, read-out: Tmax) of the same molecule?
A: The Tmax was 1.7 h.

Q: And the CL/F (beagle, dog, whole blood, po, 10 mg/kg, oral gavage 10 mg/kg)?
A: Its CL/F is 1.12 mL/min/kg.

Q: And the “bioconversion to the C1 (R) enantiomer in vivo” value (chiral HPLC chromatograms of all study samples, dog)?
A: The value was “No bioconversion was observed”.

Q: And the concentration at 1080 hr (dog, in vivo, 1080 hr, Beagle, oral 10 mg/kg)?
A: Its concentration at 1080 hr is 15.7 ± 6.3 ng/mL.

Q: What about the concentration at 0.25 hr [1] of the same molecule?
A: Its concentration at 0.25 hr is 291 ± 57 ng/mL.

Q: What about the concentration at 0.5 hr [1] of the same molecule?
A: Its concentration at 0.5 hr is 1170 ± 250 ng/mL.

Q: And the concentration at 1 hr [1]?
A: The concentration at 1 hr was 1920 ± 330 ng/mL.

Q: And the concentration at 2 hr [1]?
A: Its concentration at 2 hr is 2260 ± 170 ng/mL.

Q: What about the concentration at 4 hr [1] of the same molecule?
A: The concentration at 4 hr was 2010 ± 360 ng/mL.

Q: And the concentration at 8 hr [1]?
A: The concentration at 8 hr was 1110 ± 70 ng/mL.

Q: What about the concentration at 24 hr [1] of the same molecule?
A: Its concentration at 24 hr is 664 ± 112 ng/mL.

Q: What about the concentration at 48 hr [1] of the same molecule?
A: The concentration at 48 hr was 567 ± 95 ng/mL.

Q: What about the concentration at 72 hr [1] of the same molecule?
A: The concentration at 72 hr was 552 ± 65 ng/mL.

Q: And the concentration at 120 hr [1]?
A: Its concentration at 120 hr is 393 ± 67 ng/mL.

Q: What about the concentration at 168 hr [1] of the same molecule?
A: Its concentration at 168 hr is 298 ± 39 ng/mL.

Q: And the concentration at 240 hr [1]?
A: The concentration at 240 hr was 270 ± 19 ng/mL.

Q: And the concentration at 336 hr [1]?
A: The concentration at 336 hr was 219 ± 24 ng/mL.

Q: And the concentration at 408 hr [1]?
A: Its concentration at 408 hr is 135 ± 12 ng/mL.

Q: And the concentration at 504 hr [1]?
A: Its concentration at 504 hr is 103 ± 15 ng/mL.

Q: What about the concentration at 600 hr [1] of the same molecule?
A: The concentration at 600 hr was 80.4 ± 11.3 ng/mL.

Q: And the concentration at 672 hr [1]?
A: The concentration at 672 hr was 55.6 ± 12.2 ng/mL.

Q: And the concentration at 768 hr [1]?
A: Its concentration at 768 hr is 47 ± 11.9 ng/mL.

Q: And the concentration at 840 hr [1]?
A: The concentration at 840 hr was 37.4 ± 8.2 ng/mL.

Q: And the concentration at 936 hr [1]?
A: Its concentration at 936 hr is 24.8 ± 6.4 ng/mL.

Q: And the concentration at 1032 hr [1]?
A: Its concentration at 1032 hr is 18.8 ± 5.5 ng/mL.

Q: What about the concentration at 0.25 hr [2] of the same molecule?
A: Its concentration at 0.25 hr is 412 ± 89 ng/mL.

Q: And the concentration at 0.5 hr [2]?
A: Its concentration at 0.5 hr is 1660 ± 380 ng/mL.

Q: What about the concentration at 1 hr [2] of the same molecule?
A: The concentration at 1 hr was 3210 ± 230 ng/mL.

Q: And the concentration at 2 hr [2]?
A: The concentration at 2 hr was 3560 ± 570 ng/mL.

Q: And the concentration at 4 hr [2]?
A: The concentration at 4 hr was 2990 ± 340 ng/mL.

Q: And the concentration at 8 hr [2]?
A: The concentration at 8 hr was 1220 ± 170 ng/mL.

Q: And the concentration at 24 hr [2]?
A: Its concentration at 24 hr is 708 ± 162 ng/mL.

Q: What about the concentration at 48 hr [2] of the same molecule?
A: Its concentration at 48 hr is 572 ± 128 ng/mL.

Q: And the concentration at 72 hr [2]?
A: The concentration at 72 hr was 428 ± 71 ng/mL.

Q: And the concentration at 120 hr [2]?
A: The concentration at 120 hr was 292 ± 56 ng/mL.

Q: What about the concentration at 168 hr [2] of the same molecule?
A: Its concentration at 168 hr is 245 ± 47 ng/mL.

Q: And the concentration at 240 hr [2]?
A: The concentration at 240 hr was 136 ± 20 ng/mL.

Q: And the concentration at 336 hr [2]?
A: Its concentration at 336 hr is 100 ± 6 ng/mL.

Q: What about the concentration at 408 hr [2] of the same molecule?
A: The concentration at 408 hr was 75.8 ± 11.2 ng/mL.

Q: What about the concentration at 504 hr [2] of the same molecule?
A: Its concentration at 504 hr is 57.3 ± 8.5 ng/mL.

Q: What about the concentration at 600 hr [2] of the same molecule?
A: The concentration at 600 hr was 41.2 ± 3.7 ng/mL.

Q: What about the concentration at 672 hr [2] of the same molecule?
A: The concentration at 672 hr was 30.5 ± 5.1 ng/mL.

Q: What about the concentration at 768 hr [2] of the same molecule?
A: The concentration at 768 hr was 21.5 ± 4.2 ng/mL.

Q: And the concentration at 840 hr [2]?
A: Its concentration at 840 hr is 17.4 ± 4.8 ng/mL.

Q: What about the concentration at 936 hr [2] of the same molecule?
A: The concentration at 936 hr was 14.3 ± 3.4 ng/mL.

Q: And the concentration at 1032 hr [2]?
A: The concentration at 1032 hr was 13.8 ng/mL.

Q: What about the half-life [3] of the same molecule?
A: Its half-life is 205 h.

Q: What about the Cmax (dog, plasma, Beagle, oral gavage 10 mg/kg, read-out: Cmax) of the same molecule?
A: The Cmax was 2260 ng/mL.

Q: And the AUC(0-t) [3]?
A: The AUC(0-t) was 191 µg·h/mL.

Q: What about the AUC(0-inf) [3] of the same molecule?
A: The AUC(0-inf) was 196 µg·h/mL.

Q: What about the half-life [4] of the same molecule?
A: Its half-life is 209 h.

Q: What about the Cmax (dog, whole blood, Beagle, oral gavage 10 mg/kg, read-out: Cmax) of the same molecule?
A: The Cmax was 3650 ng/mL.

Q: And the AUC(0-t) [4]?
A: The AUC(0-t) was 144 ± 11 µg·h/mL.

Q: What about the AUC(0-inf) [4] of the same molecule?
A: The AUC(0-inf) was 148 µg·h/mL.

Q: And the “blood concentrations compared with plasma concentrations” value (first few hours post-dose)?
A: The value was “significantly higher than the corresponding plasma concentrations”.

Q: And the “affinity to red blood cells (RBC)” value (initial phase post-dose)?
A: Its value is “higher initial affinity to red blood cells (RBC)”.

Q: And the tlast (plasma, Beagle, oral gavage 10 mg/kg)?
A: The tlast was 1080 h.

Q: What about the Cl/F [5] of the same molecule?
A: Its Cl/F is 0.84 ± 0.0467 mL/min/kg.

Q: What about the Cmax [5] of the same molecule?
A: Its Cmax is 2260 ± 170 ng/mL.

Q: And the “NCA AUC0-last” value [5]?
A: The value was 191 ± 11 µg·h/mL.

Q: What about the “AUC compared with the racemate” value [6] of the same molecule?
A: Its value is “lower compared to those of the racemate”.

Q: And the “Cmax compared with the racemate” value [6]?
A: Its value is “lower compared to those of the racemate”.

Q: And the Tmax (whole blood, Beagle, oral gavage 10 mg/kg, 10 mg/kg)?
A: Its Tmax is 1.67 ± 0.58 h.
